The record followed here is patent US20200165194A1, “ADDITIVE COMPOSITION FOR CULTURE MEDIUM, ADDITIVE COMPOUND FOR CULTURE MEDIUM, AND METHOD FOR CULTURE OF CELLS OR TISSUE USING SAME” (NISSAN CHEMICAL CORPORATION, priority 2017, published 2020).

Like-named read-outs stand apart in the source and are kept apart here.

What all share (assay type): cell-based
Data set [1] relates to human epithelial-like cell cancer-derived cell line A431. The experiment in a line: Various human cancer cells-2, 3D culture, ATP assay (Experimental Example 6). The conditions noted are these: 4 days; for viability at 5 µM: Homo sapiens, A-431, 96 h, read-out: number of viable cells (RLU), relative value to control (100%).
Data set [2] relates to human malignant melanoma-derived cell line A375. The data set is described as above. The following applies: 4 days; for viability at 5 µM / viability at 10 µM: Homo sapiens, A-375, 96 h, read-out: number of viable cells (RLU), relative value to control (100%).
In data set [3] the test system is a plurality of cancer cell lines. The experiment in a line: Various human cancer cells-1, summary over the cell lines (Experimental Example 5). The following applies: cancer cell lines under three-dimensional conditions. The source says:
Various human-derived cancer cells were precultured (single layer culture) in respective media shown below. […]

The subject of data set [4] is SKOV3 cells (human ovarian cancer-derived cell line). The experiment in a line: Cell proliferation activity in three-dimensional medium FCeM, ATP assay (Experimental Example 1). The following applies: SKOV3, 3D medium FCeM, 4 days, DMSO control = 100%, average of two tests. The method, then:
A cell proliferation promoting effect when the compound to be used in the present invention was added to a three-dimensional medium was studied. Specifically, precultured (adhesion cultured) SKOV3 cells (human ovarian cancer-derived cell line) were recovered and suspended in a three-dimensional cell culture medium (“FCeM (registered trade mark)” (Nissan chemical corporation)) to prepare a cell suspension. […] The cell suspension seeded in the plate was stood overnight at 37° C., 5% CO2. Then, a DMSO diluted solution (4.44 μL) of the compound to be used in the present invention was added at a final concentration of 5 μM (or two steps of […] and 10 μM) (no stirring after addition). After addition of each compound, the mixtures were stood for 4 days at 37° C., 5% CO2. […] The luminescence intensity (RLU value) was measured by FlexStation3 (manufactured by Molecular Devices), and cell proliferation was evaluated.
The proliferation rate was calculated based on the control (cells added with DMSO without containing the compound to be used in the present invention) as the standard (100%). The values shown in the tables are average values of the results of two tests.

Setting [5] is: low attachment U-bottom plate, 5 μM.
Where [6] appears, read: low attachment U-bottom plate, 10 μM.
Setting [7] is: low attachment flat bottom plate (gellan gum medium), 5 μM.
Where [8] appears, read: low attachment flat bottom plate (gellan gum medium), 10 μM.

With `CC/C(=N\NC(=O)C(C)Nc1ccccc1)c1ccc(O)c(C)c1O` (stereo not drawn) [k-1:B-1], the “number of viable cells (RLU), relative value to control (100%)” value in data set [1] (setting [5]), in data set [1] (setting [6]), in data set [1] (setting [7]), in data set [1] (setting [8]), in data set [2] (setting [5]) and in data set [2] (setting [6]) was “⊙” each time. In addition, the viability at 5 µM in data set [2] (setting [7]) was over 120%. Besides, the viability at 10 µM in data set [2] (setting [8]) is over 120%.

As for `CCC(=NNC(=O)C(CC)Nc1ccccc1)c1ccc(O)c(C)c1O` (stereo not drawn) [k-1:H-7], in data set [3], the “proliferation activity (in words)” value is “promoted proliferation activity in a plurality of cancer cell lines”. For the same compound, the “proliferation rate (%)” value in data set [4] (compound 5 μM) worked out at 236.46%.

`CC/C(=N\NC(=O)Nc1ccccc1)c1ccc(O)c(C)c1O` [k-1:H-10]: the “proliferation activity (in words)” value in data set [3] is recorded as “promoted proliferation activity in a plurality of cancer cell lines”. For the same compound, in data set [4] (5 μM), the “proliferation rate (%) (5 μM)” value is 127.9%. The “proliferation rate (%) (10 μM)” value in data set [4] (10 μM) amounted to 138.4%.

For `CC/C(=N\NC(=O)NCc1ccccc1)c1ccc(O)c(C)c1O` [k-1:I-1], the viability at 5 µM in data set [1] (setting [5]) is 120 to 150%; in data set [1] (setting [7]) it was under 119%; in data set [2] (setting [5]), 120 to 150%; in data set [2] (setting [7]), under 119%. The “number of viable cells (RLU), relative value to control (100%)” value in data set [1] (setting [6]) and in data set [1] (setting [8]) was “⊙” in each case. For the same compound, the viability at 10 µM in data set [2] (setting [6]) is 120 to 150%; in data set [2] (setting [8]) it was under 119%.
